Key:
[1] = biological target: T1, S-type amylase (Calibzyme S) (Homo sapiens, UniProt P0DUB6); test: amylase isozyme activity assay with sodium azide as activator, S-type amylase sample; format: biochemical; conditions: for Change in absorbance, Containing Antibody (Composition C) / Change in absorbance, Without antibody (Composition D) / Relative sensitivity / Percent residual enzyme activity: S-type amylase; for Relative sensitivity: G3CNP at 300 mM = 100; for Percent residual enzyme activity: composition C/D; for percent inhibition of S-type amylase: irrespective of sodium azide concentrations, FIG. 4 and FIG. 5
T1 construct: purchased International Reagents Corporation Calibzyme S
T1 sequence (P0DUB6 16-511): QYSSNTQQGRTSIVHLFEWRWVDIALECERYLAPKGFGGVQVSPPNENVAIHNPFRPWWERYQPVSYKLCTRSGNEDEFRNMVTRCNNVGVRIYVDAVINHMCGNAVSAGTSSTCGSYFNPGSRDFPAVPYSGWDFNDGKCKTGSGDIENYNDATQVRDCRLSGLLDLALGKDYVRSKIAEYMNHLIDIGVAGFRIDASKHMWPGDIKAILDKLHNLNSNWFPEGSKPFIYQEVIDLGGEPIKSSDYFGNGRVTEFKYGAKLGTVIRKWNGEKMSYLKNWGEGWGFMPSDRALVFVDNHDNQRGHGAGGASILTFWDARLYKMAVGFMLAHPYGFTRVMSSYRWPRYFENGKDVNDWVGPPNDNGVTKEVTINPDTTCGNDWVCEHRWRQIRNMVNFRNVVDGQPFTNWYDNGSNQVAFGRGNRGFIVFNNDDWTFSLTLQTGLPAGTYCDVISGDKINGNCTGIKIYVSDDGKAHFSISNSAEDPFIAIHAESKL
Protocol: S-type amylase inhibitory antibody 88E8 (manufactured by Roche Diagnostics K.K.) 20 mg/L
S-type amylase inhibitory antibody 66C7 (manufactured by Roche Diagnostics K.K.) 5 mg/L
(§1) Substrate (GalG2CNP (Example) or G3CNP (Comparative Example)) 2.6 mM
(3) S-type Amylase (Calibzyme S, Manufactured by International Reagents Corporation)
Each of the above-mentioned samples (0.05 mL) was added to respective reagent C and D (3 mL) and the mixtures were left standing at 37° C. for 3 minutes. Then, change in absorbance at 405 nm was assayed and change in absorbance per minute was calculated.
In the Tables, P is the case where P-type amylase was used as the sample, and S is the case where S-type amylase was used. The relative sensitivity of P and S is based on the change in absorbance of G3CNP as 100, wherein sodium azide was 300 mM.
Percent residual enzyme activity and relative sensitivity were calculated by the following formulas.
Percent residual enzyme activity (%)=(change in absorbance of composition C)/(change in absorbance of composition D)×100
Relative sensitivity (%)=(change in absorbance of composition D)/(change in absorbance of Comparative Example wherein sodium azide was 300 mM)×100

S-type amylase = biological target: T2, S-type amylase (Homo sapiens, UniProt P0DUB6); test: S-type amylase activity assay of serum by subtraction (reagent F minus reagent G); format: biochemical; conditions: for S-type amylase activity value: change in absorbance with reagent F minus reagent G; for Blank, change in absorbance per minute: distilled water as sample, compositions F and G
T2 construct: Serum (1, 2 or 3); from tissue; host or cells: serum
T2 sequence (P0DUB6 16-511): T1 sequence (P0DUB6 16-511)
Protocol: Potassium thiocyanate 140 mM
as §1
S-type amylase inhibitory antibody 88E8 (manufactured by Roche Diagnostics K.K.) 15 mg/L
S-type amylase inhibitory antibody 66C7 (manufactured by Roche Diagnostics K.K.) 1.25 mg/L
(1) Distilled Water(Blank)
Each of the above-mentioned reagents (0.05 mL) was added to the above reagent F (3 mL) and the mixtures were left standing at 37° C. for 3 minutes. Then, change in absorbance at 405 nm was assayed and change in absorbance per minute was calculated (change in absorbance a). The same procedure was repeated using reagent G and change in absorbance per minute was calculated (change in absorbance b). Then, change in absorbance b was subtracted from change in absorbance a to give change in absorbance c, which was converted to S-type amylase activity value at this composition using the molecular extinction coefficient of CNP.

**Q.** Which results are given for O=[N+]([O-])c1ccc(O[C@H]2O[C@H](CO)[C@@H](O[C@H]3O[C@H](CO)[C@@H](O[C@H]4O[C@H](CO)[C@@H](O)[C@H](O)[C@H]4O)[C@H](O)[C@H]3O)[C@H](O)[C@H]2O)c(Cl)c1 [Example G3CNP, 2-chloro-4-nitrophenylmaltotrioside, reference compound]?
**A.** Change in absorbance, Containing Antibody (Composition C) ([1]; sodium azide 0 mM): 0.3 mABS/min; Change in absorbance, Without antibody (Composition D) ([1]; sodium azide 0 mM): 4.7 mABS/min; Relative sensitivity ([1]; sodium azide 0 mM): 10.2%; Percent residual enzyme activity ([1]; sodium azide 0 mM): 6.4%; Change in absorbance, Containing Antibody (Composition C) ([1]; sodium azide 30 mM): 0.9 mABS/min; Change in absorbance, Without antibody (Composition D) ([1]; sodium azide 30 mM): 15.7 mABS/min; Relative sensitivity ([1]; sodium azide 30 mM): 34.2%; Percent residual enzyme activity ([1]; sodium azide 30 mM): 5.7%; Change in absorbance, Containing Antibody (Composition C) ([1]; sodium azide 60 mM): 1.0 mABS/min; Change in absorbance, Without antibody (Composition D) ([1]; sodium azide 60 mM): 22.4 mABS/min; Relative sensitivity ([1]; sodium azide 60 mM): 48.8%; Percent residual enzyme activity ([1]; sodium azide 60 mM): 4.5%; Change in absorbance, Containing Antibody (Composition C) ([1]; sodium azide 90 mM): 1.6 mABS/min; Change in absorbance, Without antibody (Composition D) ([1]; sodium azide 90 mM): 28.6 mABS/min; Relative sensitivity ([1]; sodium azide 90 mM): 62.3%; Percent residual enzyme activity ([1]; sodium azide 90 mM): 5.6%; Change in absorbance, Containing Antibody (Composition C) ([1]; sodium azide 120 mM): 1.5 mABS/min; Change in absorbance, Without antibody (Composition D) ([1]; sodium azide 120 mM): 31.0 mABS/min; Relative sensitivity ([1]; sodium azide 120 mM): 67.5%; Percent residual enzyme activity ([1]; sodium azide 120 mM): 4.8%; Change in absorbance, Containing Antibody (Composition C) ([1]; sodium azide 150 mM): 1.6 mABS/min; Change in absorbance, Without antibody (Composition D) ([1]; sodium azide 150 mM): 35.8 mABS/min; Relative sensitivity ([1]; sodium azide 150 mM): 78.0%; Percent residual enzyme activity ([1]; sodium azide 150 mM): 4.5%; Change in absorbance, Containing Antibody (Composition C) ([1]; sodium azide 200 mM): 1.9 mABS/min; Change in absorbance, Without antibody (Composition D) ([1]; sodium azide 200 mM): 41.1 mABS/min; Relative sensitivity ([1]; sodium azide 200 mM): 89.5%; Percent residual enzyme activity ([1]; sodium azide 200 mM): 4.6%; Change in absorbance, Containing Antibody (Composition C) ([1]; sodium azide 250 mM): 2.2 mABS/min; Change in absorbance, Without antibody (Composition D) ([1]; sodium azide 250 mM): 44.5 mABS/min; Relative sensitivity ([1]; sodium azide 250 mM): 96.9%; Percent residual enzyme activity ([1]; sodium azide 250 mM): 4.9%; Change in absorbance, Containing Antibody (Composition C) ([1]; sodium azide 300 mM): 2.3 mABS/min; Change in absorbance, Without antibody (Composition D) ([1]; sodium azide 300 mM): 45.9 mABS/min; Relative sensitivity ([1]; sodium azide 300 mM): 100.0%; Percent residual enzyme activity ([1]; sodium azide 300 mM): 5.0%; percent inhibition of S-type amylase [1]: around 95%; S-type amylase activity value (S-type amylase; Serum 1): 23.4 IU/L; S-type amylase activity value (S-type amylase; Serum 2): 87.5 IU/L; S-type amylase activity value (S-type amylase; Serum 3): 71.9 IU/L; Blank, change in absorbance per minute (S-type amylase): 0.0006 ABS/min

**Q.** What does the source list for O=[N+]([O-])c1ccc(O[C@H]2O[C@H](CO)[C@@H](O[C@H]3O[C@H](CO)[C@@H](O[C@@H]4O[C@H](CO)[C@H](O)[C@H](O)[C@H]4O)[C@H](O)[C@H]3O)[C@H](O)[C@H]2O)c(Cl)c1 [GalG2CNP, 2-chloro-4-nitrophenyl 4-O-β-D-galactopyranosylmaltoside]?
**A.** Change in absorbance, Containing Antibody (Composition C) ([1]; sodium azide 0 mM): 0.8 mABS/min; Change in absorbance, Without antibody (Composition D) ([1]; sodium azide 0 mM): 14.6 mABS/min; Relative sensitivity ([1]; sodium azide 0 mM): 31.8%; Percent residual enzyme activity ([1]; sodium azide 0 mM): 5.5%; Change in absorbance, Containing Antibody (Composition C) ([1]; sodium azide 30 mM): 1.6 mABS/min; Change in absorbance, Without antibody (Composition D) ([1]; sodium azide 30 mM): 33.2 mABS/min; Relative sensitivity ([1]; sodium azide 30 mM): 72.3%; Percent residual enzyme activity ([1]; sodium azide 30 mM): 4.8%; Change in absorbance, Containing Antibody (Composition C) ([1]; sodium azide 60 mM): 2.0 mABS/min; Change in absorbance, Without antibody (Composition D) ([1]; sodium azide 60 mM): 43.8 mABS/min; Relative sensitivity ([1]; sodium azide 60 mM): 95.4%; Percent residual enzyme activity ([1]; sodium azide 60 mM): 4.6%; Change in absorbance, Containing Antibody (Composition C) ([1]; sodium azide 90 mM): 2.4 mABS/min; Change in absorbance, Without antibody (Composition D) ([1]; sodium azide 90 mM): 49.6 mABS/min; Relative sensitivity ([1]; sodium azide 90 mM): 108.1%; Percent residual enzyme activity ([1]; sodium azide 90 mM): 4.8%; Change in absorbance, Containing Antibody (Composition C) ([1]; sodium azide 120 mM): 2.6 mABS/min; Change in absorbance, Without antibody (Composition D) ([1]; sodium azide 120 mM): 53.1 mABS/min; Relative sensitivity ([1]; sodium azide 120 mM): 115.7%; Percent residual enzyme activity ([1]; sodium azide 120 mM): 4.9%; Change in absorbance, Containing Antibody (Composition C) ([1]; sodium azide 150 mM): 2.4 mABS/min; Change in absorbance, Without antibody (Composition D) ([1]; sodium azide 150 mM): 57.8 mABS/min; Relative sensitivity ([1]; sodium azide 150 mM): 125.9%; Percent residual enzyme activity ([1]; sodium azide 150 mM): 4.2%; Change in absorbance, Containing Antibody (Composition C) ([1]; sodium azide 200 mM): 2.6 mABS/min; Change in absorbance, Without antibody (Composition D) ([1]; sodium azide 200 mM): 61.1 mABS/min; Relative sensitivity ([1]; sodium azide 200 mM): 133.1%; Percent residual enzyme activity ([1]; sodium azide 200 mM): 4.3%; Change in absorbance, Containing Antibody (Composition C) ([1]; sodium azide 250 mM): 2.5 mABS/min; Change in absorbance, Without antibody (Composition D) ([1]; sodium azide 250 mM): 67.3 mABS/min; Relative sensitivity ([1]; sodium azide 250 mM): 146.6%; Percent residual enzyme activity ([1]; sodium azide 250 mM): 3.7%; Change in absorbance, Containing Antibody (Composition C) ([1]; sodium azide 300 mM): 2.6 mABS/min; Change in absorbance, Without antibody (Composition D) ([1]; sodium azide 300 mM): 66.8 mABS/min; Relative sensitivity ([1]; sodium azide 300 mM): 145.5%; Percent residual enzyme activity ([1]; sodium azide 300 mM): 3.9%; percent inhibition of S-type amylase [1]: around 95%; S-type amylase activity value (S-type amylase; Serum 1): 44.8 IU/L; S-type amylase activity value (S-type amylase; Serum 2): 167.7 IU/L; S-type amylase activity value (S-type amylase; Serum 3): 140.7 IU/L; sensitivity (change in absorbance) compared with Comparative Example (S-type amylase; Table 6, serum samples): superior sensitivity; Blank, change in absorbance per minute (S-type amylase): 0.0003 ABS/min

Reference: patent US6350585B1, “Reagent for assay of amylase isozyme activity” (priority 1998, dated 2002)
